Where “and” joins values, the source holds several entries; their conditions need not be identical. Identical values can stand only once.
Columns and labels:
Type in all cases: in vivo
[1] = test system: corn planthopper (Peregrinus maidis); settings: for Percent Mortality, Observed, Cmpd A: in vivo
Description: (§1) The presence of a synergistic effect between two active ingredients can be established with the aid of the Colby equation (see Colby, S. R., “Calculating Synergistic and Antagonistic Responses of Herbicide Combinations”, Weeds 1967, 15, 20-22):
(§2) Using the method of Colby, the presence of a synergistic interaction between two active ingredients is established by first calculating the predicted activity, p, of the mixture based on activities of the two components applied alone. In the equation above, A is the biological activity in percentage control of one component applied alone at rate x. The B term is the biological activity in percentage control of the second component applied at rate y. The equation calculates p, the predicted biological activity of the mixture of A at rate x with B at rate y if their effects are strictly additive and no interaction has occurred. If the experimentally established effect of the mixture is greater than the predicted activity, p, synergism is present. To use the Colby equation the active ingredients of the mixture are applied in a test separately as well as in combination.
(§3) Test compounds and compositions were formulated using a solution containing 10% acetone, 90% water and 300 ppm X-77® Spreader Lo-Foam Formula non-ionic surfactant containing alkylarylpolyoxyethylene, free fatty acids, glycols and isopropanol (Loveland Industries, Inc. Greeley, Colo., USA). The formulated compounds or compositions were applied in 1 mL of liquid through a SUJ2 atomizer nozzle with 1/8 JJ custom body (Spraying Systems Co. Wheaton, Ill., USA) positioned 1.27 cm (0.5 inches) above the top of each test unit. Tests were replicated three times. After spraying of the formulated test compound or compositions, each test unit was allowed to dry for 1 h and then a black, screened cap was placed on top. The test units were held for 6 days in a growth chamber at 25° C. and 70% relative humidity. Plant feeding damage was then visually assessed based on foliage consumed.
For evaluating control of corn planthopper (Peregrinus maidis) through contact and/or systemic means, the test unit consisted of a small open container with a 3-4-day-old maize plant (spike) inside. White sand was added to the top of the soil prior to application. Test compounds and compositions were formulated, sprayed, and replicated three times as described for Test A. After spraying, the test units were allowed to dry for 1 h before they were post-infested with ˜15-20 nymphs (18 to 21 day old) by sprinkling them onto the sand with a salt shaker. A black, screened cap was placed on the top of the cylinder. The test units were held for 6 days in a growth chamber at 22-24° C. and 50-70% relative humidity. Each test unit was then visually assessed for insect mortality.
Compound 123 was applied at a rate of 2.5 ppm. Compound 8 was applied at a rate of 0.2 ppm.

[2] = test system: Western Flower Thrip (Frankliniellla occidentalis); test: Test D: control of Western Flower Thrip on Soleil bean plant through contact and/or systemic means, plant protection; settings: for Plant Protection, Observed, Cmpd A: in vivo
Description: as §1, §2, §3
For evaluating control of the Western Flower Thrip (Frankliniellla occidentalis) through contact and/or systemic means, the test unit consisted of a small open container with a 5-7-day-old Soleil bean plant inside.
Test compounds and compositions were formulated, sprayed, and replicated three times as described for Test A. After spraying, the test units were allowed to dry for 1 hour and then 22-27 adult thrips were added to the unit and then a black, screened cap was placed on top. The test units were held for 7 days at 25° C. and 45-55% relative humidity.
Compound 8 was applied at a rate of 250 ppm.

[3] = test system: diamondback moth (Plutella xylostella); test: Test A: control of diamondback moth on radish plant, foliar spray, plant feeding damage assessed visually; settings: for Plant Protection, Observed, Cmpd A: in vivo
Description: as §1, §2
For evaluating control of diamondback moth (Plutella xylostella) the test unit consisted of a small open container with a 12-14-day-old radish plant inside. This was pre-infested with ˜50 neonate larvae that were dispensed into the test unit via corn cob grits using a bazooka inoculator. The larvae moved onto the test plant after being dispensed into the test unit.
as §3
Compound 8 was applied at a rate of 20 ppm.

[4] = test system: green peach aphid (Myzus persicae); settings: for Percent Mortality, Observed, Cmpd A: in vivo
Description: as §1, §2, §3
For evaluating control of green peach aphid (Myzus persicae) through contact and/or systemic means, the test unit consisted of a small open container with a 12-15-day-old radish plant inside. This was pre-infested by placing on a leaf of the test plant 30-40 aphids on a piece of leaf excised from a culture plant (cut-leaf method). The aphids moved onto the test plant as the leaf piece desiccated. After pre-infestation, the soil of the test unit was covered with a layer of sand.
Test compounds and compositions were formulated and sprayed as described for Test A. The applications were replicated three times. After spraying of the formulated test compound or composition, each test unit was allowed to dry for 1 h and then a black, screened cap was placed on top. The test units were held for 6 days in a growth chamber at 19-21° C. and 50-70% relative humidity. Each test unit was then visually assessed for insect mortality.
The results calculated as mean averages of results from the three replicates are listed in Table B. Compound 123 was applied at a rate of 50 ppm. Compound 8 was applied at a rate of 250 ppm.

| Compound | Percent Mortality, Observed, Cmpd A [1] | Percent Mortality, Observed, Cmpd A [4] | further results |
| --- | --- | --- | --- |
| COC(=O)N(C(=O)N1CO[C@@]2(C(=O)OC)Cc3cc(Cl)ccc3C2=N1)c1ccc(OC(F)(F)F)cc1 [indoxacarb] | 21% | 32% | Plant Protection, Observed, Cmpd A [2]: 23; Plant Protection, Observed, Cmpd A [3]: 40 |
| CN/C(=N/CC1CCOC1)N[N+](=O)[O-] (centres unmarked) [dinotefuran] | 42% | 33% | – |
| CC(C)N1C(=O)N(c2ccccc2)CS/C1=N\C(C)(C)C [buprofezin] | 44% | 14% | – |
| CCOC(=O)OC1=C(c2cc(C)ccc2C)C(=O)N[C@]12CC[C@@H](OC)CC2 [spirotetramat] | 65% | 8% | – |
| CCOP(=S)(OCC)Oc1nc(Cl)c(Cl)cc1Cl [chlorpyrifos] | 48% | 18% | – |
| CNC(=O)c1cc(C#N)cc(C)c1NC(=O)c1cc(Br)nn1-c1ncccc1Cl [cyantraniliprole] | 67% | 10% | – |
| Cc1cc(C(F)(C(F)(F)F)C(F)(F)F)ccc1NC(=O)c1cccc(I)c1C(=O)NC(C)(C)CS(C)(=O)=O [flubendiamide] | 42% | 5% | – |
| CN1COCN(Cc2cnc(Cl)s2)/C1=N\[N+](=O)[O-] [thiamethoxam] | 29% | 40% | – |
| O=C(NC(=O)c1c(F)cccc1F)Nc1ccc(OC(F)(F)C(F)OC(F)(F)F)c(Cl)c1 (centres unmarked) [novaluron] | 51% | 7% | – |
| CC(COc1ccc(Oc2ccccc2)cc1)Oc1ccccn1 (centres unmarked) [pyriproxifen] | 20% | 10% | Plant Protection, Observed, Cmpd A [2]: 7; Plant Protection, Observed, Cmpd A [3]: 0 |
| C/C(=N\C#N)N(C)Cc1ccc(Cl)nc1 [acetamiprid] | 32% | 9% | – |
| N#Cc1nn(-c2c(Cl)cc(C(F)(F)F)cc2Cl)c(N)c1[S+]([O-])C(F)(F)F (centres unmarked) [fipronil] | 21% | 87% | – |
| CN(C)C(CSC(N)=O)CSC(N)=O [cartap] | 40% | 15% | – |
| CN/C(=N\[N+](=O)[O-])NCc1cnc(Cl)s1 [clothianidin] | 35% | 16% | – |
| CCOCn1c(-c2ccc(Cl)cc2)c(C#N)c(Br)c1C(F)(F)F [chlorfenapyr] | 81% | 54% | – |
| CCc1nn(C)c(C(=O)NCc2ccc(Oc3ccc(C)cc3)cc2)c1Cl [tolfenpyrad] | 98% | 77% | – |
| O=c1c(-c2cc(OC(F)(F)F)cc(-c3ccc(F)nc3)c2)c([O-])[n+](Cc2cnc(Cl)s2)c2ccccn12 [Compound 123] | – | – | Percent Mortality, Observed, Cmpd 123 ([1]; Cmpd 123 alone at 2.5 ppm, spray, 6 days, mean of 3 replicates): 28% and 21% and 8% and 42% and 68%; Plant Protection, Observed, Cmpd 123 ([2]; Cmpd 123 alone at 25 ppm, spray, 7 days, (0 to 10 rating) × 10, mean of 3 replicates): 23 (5×) and 30 (5×) and 33 (6×) and 3 (6×) and 40 (6×); Plant Protection, Observed, Cmpd 123 ([3]; Cmpd 123 alone at 0.1 ppm, foliar spray, 6 days, (0 to 10 rating) × 10, mean of 3 replicates): 33 (5×) and 17 (11×) and 97 (6×) and 80 (6×); Percent Mortality, Observed, Cmpd 123 ([4]; Cmpd 123 alone at 50 ppm, spray, 6 days, mean of 3 replicates): 15% and 18% and 22% and 9% and 66% |
| CNC(=O)O/N=C(\SC)C(=O)N(C)C [oxamyl] | 32% | 23% | – |
| CS/C(C)=N\OC(=O)N(C)SN(C)C(=O)O/N=C(\C)SC [thiodicarb] | 64% | 25% | – |
| CNC(=O)c1cc(Cl)cc(C)c1NC(=O)c1cc(Br)nn1-c1ncccc1Cl [chlorantraniliprole] | 33% | 11% | – |
| abamectin | 90% | 91% | Plant Protection, Observed, Cmpd A [2]: 20; Plant Protection, Observed, Cmpd A [3]: 50 |
| N#CCNC(=O)c1cnccc1C(F)(F)F [flonicamid] | 70% | 14% | Plant Protection, Observed, Cmpd A [2]: 60; Plant Protection, Observed, Cmpd A [3]: 10 |
| FC(F)(F)c1ccc(OCCCOc2c(Cl)cc(OCC=C(Cl)Cl)cc2Cl)nc1 [pyridalyl] | 62% | 13% | – |
| N#C/N=C1\SCCN1Cc1ccc(Cl)nc1 [thiacloprid] | 60% | 12% | – |
| COc1ccc(C(F)(F)F)cc1-c1c([O-])[n+](Cc2ccc(F)nc2)c2ccccn2c1=O [Compound 8] | – | – | Percent Mortality, Observed, Cmpd 8 ([1]; Cmpd 8 alone at 0.2 ppm, spray, 6 days, mean of 3 replicates): 38% and 71% and 8% and 55% and 76%; Plant Protection, Observed, Cmpd 8 ([2]; Cmpd 8 alone at 250 ppm, spray, 7 days, (0 to 10 rating) × 10, mean of 3 replicates): 53 (5×) and 37 (5×) and 50 (6×) and 10 (6×) and 30 (6×); Plant Protection, Observed, Cmpd 8 ([3]; Cmpd 8 alone at 20 ppm, foliar spray, 6 days, (0 to 10 rating) × 10, mean of 3 replicates): 13 (5×) and 0 (11×) and 40 (6×) and 17 (6×); Percent Mortality, Observed, Cmpd 8 ([4]; Cmpd 8 alone at 250 ppm, spray, 6 days, mean of 3 replicates): 25% and 13% and 10% and 15% |
| spinetoram | 58% | 10% | Plant Protection, Observed, Cmpd A [2]: 27; Plant Protection, Observed, Cmpd A [3]: 40 |
| CC1=NNC(=O)N(/N=C/c2cccnc2)C1 [pymetrozine] | 76% | 28% | – |
| CC1(C)[C@H](C(=O)O[C@H](C#N)c2cccc(Oc3ccccc3)c2)[C@@H]1/C=C(\Cl)C(F)(F)F (racemic) [lambda-cyhalothrin] | 45% | 39% | – |
| COc1cccc(C(=O)NN(C(=O)c2cc(C)cc(C)c2)C(C)(C)C)c1C [methoxyfenozide] | 33% | 16% | – |
| CNC(=O)ON=C(C)SC [methomyl] | 80% | 28% | – |

— US9314025B2, “Mixtures of mesoionic pesticides” (E I DU PONT DE NEMOURS AND COMPANY, priority 2009, dated 2016)
